The structures appear in SMILES notation.

The first data set addresses T1, hormone-sensitive lipase HSL (Rattus norvegicus, UniProt P15304).
T1 construct: Isolated rat fat cells are obtained from epididymal fatty tissue from untreated male rats; from tissue; host or cells: fat cells from epididymal fatty tissue of male Wistar rats
T1 sequence (P15304 301-1068 limits assumed): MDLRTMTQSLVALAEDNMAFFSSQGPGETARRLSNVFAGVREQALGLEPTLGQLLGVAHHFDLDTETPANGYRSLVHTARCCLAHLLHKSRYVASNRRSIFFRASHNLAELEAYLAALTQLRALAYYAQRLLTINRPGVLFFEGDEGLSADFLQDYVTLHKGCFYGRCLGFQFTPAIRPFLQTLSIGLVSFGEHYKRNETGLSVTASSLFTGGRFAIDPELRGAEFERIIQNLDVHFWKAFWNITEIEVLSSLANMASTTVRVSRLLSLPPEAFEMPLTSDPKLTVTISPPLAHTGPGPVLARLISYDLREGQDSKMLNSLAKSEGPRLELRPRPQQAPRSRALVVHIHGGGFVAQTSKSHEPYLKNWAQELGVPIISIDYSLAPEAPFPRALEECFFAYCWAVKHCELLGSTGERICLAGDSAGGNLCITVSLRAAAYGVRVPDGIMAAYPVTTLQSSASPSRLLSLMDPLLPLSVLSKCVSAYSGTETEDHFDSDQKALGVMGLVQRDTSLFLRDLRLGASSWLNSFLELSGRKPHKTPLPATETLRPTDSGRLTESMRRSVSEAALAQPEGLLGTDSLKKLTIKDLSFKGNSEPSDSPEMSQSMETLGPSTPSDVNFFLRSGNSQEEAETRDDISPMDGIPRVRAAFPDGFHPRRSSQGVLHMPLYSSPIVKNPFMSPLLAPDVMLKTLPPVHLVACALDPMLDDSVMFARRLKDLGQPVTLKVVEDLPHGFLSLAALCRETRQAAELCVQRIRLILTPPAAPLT
Put plainly: HSL enzyme test system ([3H]trioleoylglycerol hydrolysis). The class given is biochemical. Conditions: partially purified HSL from rat fat cells; [3H]trioleoylglycerol substrate; 37° C., 30 min. From the text: The activity of the compounds of the formula 1 according to the invention was examined using the following enzyme test system:
Isolated rat fat cells are obtained from epididymal fatty tissue from untreated male rats (Wistar, 220-250 g) by collagenase treatment according to published processes (e.g. S. Nilsson et al., Anal. Biochem. 158, 1986, 399-407; G. Fredrikson et al., J. Biol. Chem. 256, 1981, 6311-6320; H. Tornquist et al., J. Biol. Chem. 251, 1976, 813-819). The fat cells from 10 rats are washed three times by flotation with 50 ml each of homogenization buffer ([…] tris/HCI, pH 7.4, 0.25 M sucrose, 1 mM EDTA, 1 mM DTT, 10 μg/ml of leupeptin, 10 μg/ml of antipain, 20 μg/ml of pepstatin) and finally taken up in 10 ml of homogenization buffer. The fat cells are homogenized in a Teflon-in-glass homogenizer (Braun-Melsungen) by 10 strokes at 1500 rpm and 15° C. The homogenizate is centrifuged (Sorvall SM24 tubes, 5000 rpm, 10 min, 4° C). The bottom layer between the overlying fatty layer and the pellet is removed and the centrifugation is repeated. The bottom layer resulting from this is centrifuged again (Sorvall SM24 tubes, 20,000 rpm, 45 min, 4° C). […] After incubation for 60 min at 4° C. (shake at intervals of 15 min), the batch is centrifuged (Sorvall SM24 tubes, 3000 rpm, 10 min, 4° C.). The supernatant is brought to pH 5.2 by addition of glacial acetic acid and incubated at 4° C. for 30 min. The precipitates are collected by centrifugation (Sorvall SS34, 12,000 rpm, 10 min, 4° C.) and suspended in 2.5 ml of 20 mM tris/HCl, pH 7.0, 1 mM EDTA, 65 mM NaCl, 13% sucrose, 1 mM DTT, 10 μg/ml of leupeptin/pepstatin/antipain. The suspension is dialyzed overnight at 4° C. against 25 mM tris/HCl, pH 7.4, 50% glycerol, 1 mM DTT, 10 μg/ml of leupeptin, pepstatin, antipain and then applied to a hydroxylapatite column (0.1 g per 1 ml of suspension, equilibrated with 10 mM potassium phosphate, pH 7.0, 30% glycerol, 1 mM DTT). The column is washed with four volumes of equilibration buffer at a flow rate of 20 to 30 ml/h. The HSL is eluted with a volume of equilibration buffer which contains 0.5 M potassium phosphate, then dialyzed (see above) and concentrated 5 to 10 times by ultrafiltration (Amicon Diaflo PM 10 filter) at 4° C. The partially purified HSL can be stored at −70° C. for 4 to 6 weeks.
For the preparation of the substrate, 25-50 μCi of [^3H]trioleoylglycerol (in toluene), 6.8 μMol of unlabeled trioleoylglycerol and 0.6 mg of phospholipids (phosphatidylcholine/phosphatidylinositol 3:1 w/v) are mixed, dried over N2 and then taken up in 2 ml of 0.1 M KPi (pH 7.0) by ultrasonic treatment (Branson 250, microtip, setting 1-2, 2×1 min at a 1 min interval). After addition of 1 ml KPi and fresh ultrasonic treatment (4×30 sec on ice at 30 sec intervals), 1 ml of 20% BSA (in KPi) is added (final concentration of trioleoylglycerol 1.7 mM). For the reaction, 100 μl of substrate solution are pipetted into 100 μl of HSL solution (HSL prepared as above, diluted in 20 mM KPi, pH 7.0, 1 mM EDTA, 1 mM DTT, 0.02% BSA, 20 μg/ml of pepstatin, 10 μg/ml of leupeptin) and incubated at 37° C. for 30 min. After addition of 3.25 ml of methanol/chloroform/heptane (10:9:7) and of 1.05 ml of 0.1 M K2CO3, 0.1 M boric acid (pH 10.5), the batch is well mixed and finally centrifuged (800×g, 20 min). After phase separation, one equivalent of the upper phase (1 ml) is taken and the radioactivity is determined by liquid scintillation measurement.
Substances are customarily tested in four independent batches. The inhibition of the enzymatic activity of the HSL by a test substance is determined by comparison with an uninhibited control reaction. The IC50 value is calculated by means of an inhibition curve using at least 10 concentrations of the test substance. For the analysis of the data, the software package GRAPHIT, Elsevier-BIOSOFT is used.
For `CCOc1nn(-c2ccc(S(=O)(=O)N3CCOCC3)cc2)c(=O)o1` [Example 8, 3-(4-Morpholinosulfonylphenyl)-5-ethoxy-1,3,4-oxadiazol-2-one], the IC50 came out at 15 µM.

`COc1nn(-c2ccc(OC(F)(F)F)cc2)c(=O)o1` [Example 10, 3-(4-Trifluoromethoxyphenyl)-5-methoxy-1,3,4-oxad iazol-2-one] came in with an IC50 of 6 µM.

`CCOc1nn(-c2ccc(OC(F)(F)F)cc2)c(=O)o1` [Example 11, 3-(4-Trifluoromethoxyphenyl)-5-ethoxy-1,3,4-oxadiazol-2-one] came in with an IC50 of 10 µM.

`CC(C)Oc1nn(-c2ccc(OC(F)(F)F)cc2)c(=O)o1` [Example 12, 3-(4-Trifluoromethoxyphenyl)-5-isopropoxy-1,3,4-oxadiazol-2-one] came in with an IC50 of 10 µM.

For `CCCCOc1nn(-c2ccc(OC(F)(F)F)cc2)c(=O)o1` [Example 13, 3-(4-Trifluoromethoxyphenyl)-5-butoxy-1,3,4-oxadiazol-2-one], half-maximal inhibition (IC50) required 10 µM.

For the compound `O=c1oc(OCc2ccccc2)nn1-c1ccc(OC(F)(F)F)cc1` [Example 14, 3-(4-Trifluoromethoxyphenyl)-5-benzyloxy-1,3,4-oxad iazol-2-one], 50 µM corresponded to half-maximal inhibition (IC50).

As to `COc1nn(-c2ccc(S(=O)(=O)NC3CC(C)CC(C)(C)C3)cc2)c(=O)o1` (stereo not shown) [Example 15, 3-(4-(3,3,5-Trimethylcyclohexylaminosulfonyl)phenyl)-5-methoxy-1,3,4-oxadiazol-2-one], the IC50 came to 2 µM.

Turning to `CCOc1nn(-c2ccc(OC3CC(C)(C)CC(C)(C)C3)cc2)c(=O)o1` [Example 16, 3-(4-(3,3,5,5-Tetramethylcyclohexyloxy)phenyl)-5-ethoxy-1,3,4-oxadiazol-2-one], the IC50 came to 2 µM.

`COc1nn(-c2cccc(OCc3ccccc3)c2)c(=O)o1` [Example 17, 3-(3-Benzyloxyphenyl)-5-methoxy-1,3,4-oxadiazol-2-one] had an IC50 of 2 µM.

With `CCOc1nn(-c2cccc(OCc3ccccc3)c2)c(=O)o1` [Example 18, 3-(3-Benzyloxyphenyl)-5-ethoxy-1,3,4-oxadiazol-2-one], the IC50 was less than 1 µM.

With `CCOc1nn(-c2cccc(OC(F)(F)F)c2)c(=O)o1` [Example 19, 3-(3-Trifluoromethoxyphenyl)-5-ethoxy-1,3,4-oxadiazol-2-one], the IC50 amounted to 5 µM.

As for `COc1nn(-c2cccc(Oc3ccccc3)c2)c(=O)o1` [Example 33, 3-(3-Phenoxyphenyl)-5-methoxy-1,3,4-oxadiazol-2-one], the IC50 came out at 4 µM.

`CCOc1nn(-c2cccc(Oc3ccccc3)c2)c(=O)o1` [Example 34, 3-(3-Phenoxyphenyl)-5-ethoxy-1,3,4-oxadiazol-2-one] gave an IC50 of 3 µM.

Consider `CC(C)Oc1nn(-c2cccc(Oc3ccccc3)c2)c(=O)o1` [Example 35, 3-(3-Phenoxyphenyl)-5-isopropoxy-1,3,4-oxadiazol-2-one], for which 3 µM corresponded to half-maximal inhibition (IC50).

In the case of `COc1nn(-c2ccc(Oc3ccccc3)cc2)c(=O)o1` [Example 36, 3-(4-Phenoxyphenyl)-5-methoxy-1,3,4-oxadiazol-2-one], the IC50 is 2 µM.

The compound `COc1nn(-c2ccc(C3CCCCC3)cc2)c(=O)o1` [Example 37, 3-(4-Cyclohexylphenyl)-5-methoxy-1,3,4-oxadiazol-2-one] registered an IC50 of 3 µM.

The compound `COc1nn(-c2cccc(OC3CC(C)(C)CC(C)(C)C3)c2)c(=O)o1` [Example 38, 3-(3-(3,3,5,5-Tetramethylcyclohexyloxy)phenyl)-5-methoxy-1,3,4-oxadiazol-2-one] gave an IC50 of less than 1 µM.

Take `COc1nn(-c2ccc(-c3ccccc3)cc2)c(=O)o1` [Example 39, 3-(4-Phenylphenyl)-5-methoxy-1,3,4-oxadiazol-2-one]: it took 60 µM to reach half-maximal inhibition (IC50).

System in another data set: not given
Assay: not given
Details: not given
The compound `CC(C)Oc1nn(-c2cccc(Oc3ccccc3)c2)c(=O)o1` [Example 35, 3-(3-Phenoxyphenyl)-5-isopropoxy-1,3,4-oxadiazol-2-one] had a melting point of 58 °C.

The term IC50 denotes the concentration that inhibits the measured activity by half. Higher therefore signals lower potency. The term melting point denotes the temperature of the solid-liquid transition.

The record behind these values is patent US6596742B1, “Substituted 3-phenyl-5-alkoxy-1,3,4-oxadiazol-2-ones, their preparation and their use in medicaments” (Aventis Pharma Deutschland GmbH, priority 1999, dated 2003).
